Laboratory results published in PubChem BioAssay (NCI).
Several values for one entry are separate records, joined by “and”; a condition that tells them apart may be missing. Identical values can stand only once.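 Briefly, cells in 96-well plates were exposed to five compound concentrations for 48 h, and endpoints were estimated by linear interpolation. GI50: concentration for 50% inhibition of growth. Definition used: TGI = concentration required for complete inhibition of growth.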

Assays:
Assay in all cases: NCI tumour cell line growth inhibition, 48 h
HCC-2998 colon = system: HCC-2998 colon
KM20L2 colon = system: KM20L2 colon
LXFL 529 NSCLC = system: LXFL 529 NSCLC
M19-MEL melanoma = system: M19-MEL melanoma
SK-MEL-28 melanoma = system: SK-MEL-28 melanoma
SNB-75 CNS = system: SNB-75 CNS
DU-145 prostate = system: DU-145 prostate
HS 578T breast = system: HS 578T breast
T-47D breast = system: T-47D breast
NCI/ADR-RES ovarian = system: NCI/ADR-RES ovarian

Row | SMILES | TGI (HCC-2998 colon) | TGI (KM20L2 colon) [µM] | TGI (LXFL 529 NSCLC) [µM] | TGI (M19-MEL melanoma) [µM] | TGI (SK-MEL-28 melanoma) | TGI (SNB-75 CNS) | TGI (DU-145 prostate) | TGI (HS 578T breast) | TGI (T-47D breast) | TGI (NCI/ADR-RES ovarian) | GI50 (HCC-2998 colon) [µM] | GI50 (KM20L2 colon) [µM] | GI50 (LXFL 529 NSCLC) [µM] | GI50 (M19-MEL melanoma) [µM] | GI50 (SK-MEL-28 melanoma) [µM] | GI50 (SNB-75 CNS) [µM] | GI50 (DU-145 prostate) [µM] | GI50 (HS 578T breast) | GI50 (T-47D breast) [µM]
1 | CC(C)CCC[C@@H](C)C1CCC2[C@@H]3CC=C4C[C@@H](C(=O)NCCN(C)C)CC[C@]4(C)C3CC[C@@]21C (some centres not stated) | 65.6 µM | > 100 | > 100 | 39.7 | > 100 µM | > 100 µM |  |  |  |  |  |  |  |  |  |  |  |  | 
2 | ClC(Cl)=C1C(=C(Cl)Cl)C(Cl)(Cl)C1(Cl)Cl | 13.7 µM | 11.3 | 2.47 | 9.1 | 4.06 µM | 13.5 µM | 23.4 µM | 10.4 µM | 23.6 µM |  |  |  |  |  |  |  |  |  | 
3 | O=C(CC(=O)C1CCOC1=O)C(=O)Nc1cccc(Cl)c1 (configuration not stated) | > 100 µM | > 100 | > 100 | > 100 | > 100 µM | > 100 µM |  |  |  |  |  |  |  |  |  |  |  |  | 
4 | CCNC(=O)/C(=C/c1ccc(OC)cc1)c1cc(OC)c(OC)c(OC)c1 | > 39.3 µM | 13.5 | > 100 | > 100 | > 100 µM | > 73.4 µM | 80.2 µM | > 42.2 µM | > 100 µM | > 28 µM |  |  |  |  |  |  |  |  | 
5 | Nc1ccccc1C(=O)/C=C/c1c(O)ccc2ccccc12 | > 100 µM | > 100 | > 100 | 43.4 | > 100 µM | > 100 µM |  |  |  |  |  |  |  |  |  |  |  |  | 
6 | CC1=NN(C(=O)CC(=O)Nc2ccccc2F)C(=O)C1N=Nc1ccccc1[N+](=O)[O-] (configuration not stated) |  | > 100 | > 100 | 33.6 | > 100 µM | > 100 µM |  |  |  |  |  |  |  |  |  |  |  |  | 
7 | Cc1ccccc1C1=[N+]([O-])c2ccc(Cl)cc2C1=O | 29.4 µM | 16.9 | 24.3 | 21.2 | 35.9 µM | 40.3 µM |  |  |  |  |  |  |  |  |  |  |  |  | 
8 | COc1cccc(/C=N/[N-]C(=O)c2ccncc2)c1[O-].COc1cccc(/C=N/[N-]C(=O)c2ccncc2)c1[O-].[O]=[U](=[O])([OH2+])[OH2+] | > 100 µM | > 100 | > 100 | > 100 | > 56.7 µM | 62.6 µM |  |  |  |  | 12.8 | 3.14 | > 33.7 | 5.83 | 10 | 12.9 |  |  | 
9 | Cc1cc2c(c(C(N)=O)c1C)-c1ccccc1C2=O | > 100 µM | > 100 | > 100 | > 100 | > 100 µM | > 100 µM |  |  |  |  |  |  |  |  |  |  |  |  | 
10 | CC(C)=C1CCC(CN(C)C)C1=O (configuration not stated) | 33.2 µM | 27.7 | 25.4 | > 100 | 34 µM | 24.2 µM |  |  |  |  |  |  |  |  |  |  |  |  | 
11 | O=C1NCCS(=O)(=O)N[C@@H](CC2=CC=CCC2)C(=O)N2CCCC12 (some centres not stated) | > 100 µM | > 100 | > 100 | > 100 | > 100 µM | > 100 µM |  |  |  |  |  |  |  |  |  |  |  |  | 
12 | CN(C)C(=S)SSC(=S)N(C)C | > 100 µM and 38 µM | > 100 | > 100 | > 40 | 42.4 µM and > 89.9 µM and > 54 µM | 38.5 µM and > 100 µM | 52.4 µM and > 100 µM | 40.9 µM and > 100 µM and > 90.6 µM | 41.7 µM and 39 µM and 88.2 µM | 30.4 µM and 36 µM | 38.3 |  |  |  | 17.8 | 15.2 | 20.6 | 15.2 µM and > 100 µM and 45 µM | 15.9
13 | COc1c(C)n(CCO)ccc1=O |  | > 100 | > 100 | > 100 | > 100 µM | > 100 µM |  |  |  |  |  |  |  |  |  |  |  |  | 
14 | CCOC(=O)NC(=O)c1cn(C(CC)COC(=O)NCCCCCCNC(=O)OCC(CC)n2cc(C(=O)NC(=O)OCC)c(=O)[nH]c2=O)c(=O)[nH]c1=O (configuration not stated) | > 100 µM | > 100 | > 100 | > 100 | > 100 µM | > 100 µM |  |  |  |  |  |  |  |  |  |  |  |  | 
15 | Nc1nc(-c2ccc(Cl)c([N+](=O)[O-])c2)cs1 | > 100 µM | > 100 | > 100 | > 100 |  | 92.7 µM |  |  |  |  |  |  |  |  |  |  |  |  | 
16 | COC(=O)C(=O)C(C(C)=O)C(=O)NCc1ccc(OC)c(OC)c1 (configuration not stated) | > 100 µM | > 100 | > 100 | > 100 | > 100 µM | > 100 µM |  |  |  |  |  |  |  |  |  |  |  |  | 
17 | O=c1[nH]cnc(NC2C=C(CO)C(O)C2O)c1[N+](=O)[O-] (configuration not stated) | > 100 µM | > 100 | > 100 | > 100 | > 100 µM | > 100 µM |  |  |  |  |  |  |  |  |  |  |  |  | 
18 | Cc1ccc(C)c(N2C/C(=N\NC(=O)CC#N)C(c3nc4ccccc4s3)C(=O)C2=O)c1 (configuration not stated) | > 100 µM | > 100 | > 100 | > 100 | > 100 µM | > 100 µM |  |  |  |  |  |  |  |  |  |  |  |  | 
19 | CC(C(=O)c1ccc(Cl)cc1)/C(=N/NC(=O)NN)C(=O)Nc1cccc(C(F)(F)F)c1 (configuration not stated) | > 100 µM | > 100 | > 100 | > 100 | > 100 µM | > 100 µM |  |  |  |  |  |  |  |  |  |  |  |  | 
20 | Nc1c(-c2ccccc2-c2c(N)[n+]([O-])c3ccccc3[n+]2[O-])[n+]([O-])c2ccccc2[n+]1[O-] | > 100 µM | > 100 | > 100 | 60.3 | > 100 µM | > 100 µM |  |  |  |  |  |  |  |  |  |  |  |  | 
21 | CC(=O)N1CCN(c2ccc(OCC3COC(Cn4ccnc4)(c4ccc(Cl)cc4Cl)O3)cc2)CC1 (configuration not stated) | > 100 µM | > 100 | > 100 | 45.1 | > 100 µM |  |  |  |  |  |  |  |  |  |  |  |  |  | 
22 | COc1ccc(-c2oc(/C=N/NC(N)=S)c([N+](=O)[O-])c2-c2ccc(OC)c(OC)c2)cc1OC |  | 92.4 | 63.8 | 63.1 | 86.1 µM | 72.3 µM |  |  |  |  |  |  |  |  |  |  |  |  | 
23 | CN(C(=O)c1ccc([N+](=O)[O-])cc1)c1ccccc1 | > 100 µM | > 100 | > 100 | > 100 | > 100 µM | > 100 µM |  |  |  |  |  |  |  |  |  |  |  |  | 
24 | CCOP(=O)(OCC)C(C(=O)OC)C(=O)C(=O)Nc1ccc(Cl)cc1Cl (configuration not stated) | > 100 µM | > 100 | > 100 | > 100 | > 100 µM | > 100 µM |  |  |  |  |  |  |  |  |  |  |  |  | 
